Experimental data from patent US20100093973A1, “POLY(AMINO ACID) COMPOUND HAVING INHIBITORY ACTIVITY ON ABSORPTION OF PHOSPHORUS AND PHOSPHORUS ABSORPTION INHIBITOR” (priority 2007, published 2010).
Counter-ions that a name gives are not always drawn.

Key:
absorption of phosphorus = experiment: Evaluation of efficacy as phosphorus absorption inhibitors: serum radioactivity AUC (0-120 min) after oral 32P NaH2PO4 in rats, inhibitory rate; format: in vivo; conditions: rats of SD line, 32P NaH2PO4 given orally 5 min later, serum radioactivity AUC 0-120 min vs control; for Inhibitory Rate (%) of Phosphorus Absorption: oral dose 100 mg/5 mL/kg; for 50 mg/kg Inhibition (%): oral dose 50 mg/5 mL/kg
Protocol: Seven-week-old male rats of SD line (available from SANKYO Labo-Service Co., Ltd.), as test animals, were kept and acclimatized using the usual feed (Solid CRF-1 available from ORIENTAL Yeast Co., Ltd.) and they were used in the following tests after they were fasted overnight. Each candidate substance (synthesized compound) dissolved in distilled water for injection (Otsuka Pharmaceutical Co., Ltd.) was orally administered in a dose of 100 mg/5 mL/kg or 50 mg/5 mL/kg and after 5 minutes from the administration, 3 mg/3 mL/kg, 1 MBq/kg of an NaH2PO4 solution containing ^32P (available from PerkinElmer Company) was orally administered. Subsequently, the blood was collected with the elapse of time through the caudal vein of the test animal to thus obtain the serum thereof and the radioactivity of 40 μL of the serum was determined using a liquid scintillation counter. The inhibitory rate (%) for each candidate compound was calculated on the basis of the foregoing measured values according to the following equation: […]

in vitro = format: cell-based; conditions: for IC50 at 1 day: dog
Protocol: MDCK Cells were inoculated into wells of a 96-well plate filled with D-MEM/F12 culture medium (available from GIBCO Company) supplemented with 10% FBS (available from TISSUE CULTURE BIOLOGICALS Company). After the cultivation of the cells for 3 days in a CO2 incubator, the culture medium was removed, a culture medium, in which each candidate substance (synthesized compound) had been dissolved, was added, followed by the cultivation for one day. To each well, there was added 10 μL of Cell Count Reagent SF (available from NAKARAI TESUKU K.K.), followed by the cultivation thereof for 2 hours and the subsequent determination of the absorbance observed at a wavelength of 460 nm. The IC50 values each were calculated on the basis of these measured values.

| Compound | Inhibitory Rate (%) of Phosphorus Absorption (absorption of phosphorus) | IC50 at 1 day (in vitro) | IC50 (in vitro) | 50 mg/kg Inhibition (%) (absorption of phosphorus) |
| --- | --- | --- | --- | --- |
| NCCC[C@H](NC(=O)[C@H](CCCN)NC(=O)[C@@H](N)CCCN)C(=O)NCCCN(CCCCN(CCCNC(=O)[C@H](CCCN)NC(=O)[C@H](CCCN)NC(=O)[C@@H](N)CCCN)C(=O)[C@H](CCCN)NC(=O)[C@H](CCCN)NC(=O)[C@@H](N)CCCN)C(=O)[C@H](CCCN)NC(=O)[C@H](CCCN)NC(=O)[C@@H](N)CCCN [Example 28, SPM(Orn)12 Hydrochloride] | 66% | > 10000 µg/mL | – | – |
| NCCC[C@H](N)C(=O)NCCC[C@H](N)C(=O)NCCCN(CCCCN(CCCNC(=O)[C@@H](N)CCCNC(=O)[C@@H](N)CCCN)C(=O)[C@@H](N)CCCNC(=O)[C@@H](N)CCCN)C(=O)[C@@H](N)CCCNC(=O)[C@@H](N)CCCN [Example 14, SPM(Orn)8 Hydrochloride] | 46% | > 10000 µg/mL | – | – |
| NCCCC[C@H](N)C(=O)NCCCC[C@H](NC(=O)[C@@H](N)CCCCN)C(=O)NCCCN(CCCCN(CCCNC(=O)[C@H](CCCCNC(=O)[C@@H](N)CCCCN)NC(=O)[C@@H](N)CCCCN)C(=O)[C@H](CCCCNC(=O)[C@@H](N)CCCCN)NC(=O)[C@@H](N)CCCCN)C(=O)[C@H](CCCCNC(=O)[C@@H](N)CCCCN)NC(=O)[C@@H](N)CCCCN [Example 2, SPM(Lys)12 Hydrochloride] | 52% | > 10000 µg/mL | – | – |
| NCCC[C@H](N)C(=O)NCCCN(CCCCN(CCCNC(=O)[C@@H](N)CCCN)C(=O)[C@@H](N)CCCN)C(=O)[C@@H](N)CCCN [Example 4, SPM(Orn)4 Hydrochloride] | 58% | > 10000 µg/mL | – | – |
| NCCCC[C@H](NC(=O)[C@@H](N)CCCCN)C(=O)NCCCC[C@H](N)C(=O)NCCCN(CCCCN(CCCNC(=O)[C@@H](N)CCCCNC(=O)[C@H](CCCCN)NC(=O)[C@@H](N)CCCCN)C(=O)[C@@H](N)CCCCNC(=O)[C@H](CCCCN)NC(=O)[C@@H](N)CCCCN)C(=O)[C@@H](N)CCCCNC(=O)[C@H](CCCCN)NC(=O)[C@@H](N)CCCCN [Example 29, SPM(Lys)12 Hydrochloride] | 55% | > 10000 µg/mL | – | – |
| NCCCC[C@H](N)C(=O)NCCCC[C@H](N)C(=O)N(CCCCN(CCCNC(=O)[C@@H](N)CCCCN)C(=O)[C@@H](N)CCCCNC(=O)[C@@H](N)CCCCN)CCCNC(=O)[C@@H](N)CCCCN [Example 6, SPM(Lys)6 Hydrochloride] | 30% | > 10000 µg/mL | – | – |
| NCCCC[C@H](N)C(=O)N(CCCCN(CCCNC(=O)[C@@H](N)CCCN)C(=O)[C@@H](N)CCCCN)CCCNC(=O)[C@@H](N)CCCN [Example 13, SPM(Orn)2(Lys)2 Hydrochloride] | 36% | > 10000 µg/mL | – | – |
| NCCCC[C@H](N)C(=O)NCCCC[C@H](NC(=O)[C@@H](N)CCCCN)C(=O)NCCCNCCCCNCCCNC(=O)[C@H](CCCCNC(=O)[C@@H](N)CCCCN)NC(=O)[C@@H](N)CCCCN [Example 7, SPM(Lys)6 Hydrochloride] | 24% | – | > 10000 µg/mL | – |
| NCCCC[C@H](N)C(=O)NCCCC[C@H](N)C(=O)NCCCN(CCCCN(CCCNC(=O)[C@@H](N)CCCCNC(=O)[C@@H](N)CCCCN)C(=O)[C@@H](N)CCCCNC(=O)[C@@H](N)CCCCN)C(=O)[C@@H](N)CCCCNC(=O)[C@@H](N)CCCCN [Example 15, SPM(Lys)8 Hydrochloride] | 33% | > 10000 µg/mL | – | – |
| TETA (Trp-Orn-Dab)4 Hydrochloride [Example 56] | – | – | – | 71% |
| TETA(ProOrnOrn)2(OrnOrnOrn)2 Hydrochloride [Example 66] | – | – | – | 56% |
| TETA[Phe-Orn(Orn)2]4 Hydrochloride [Example 51] | – | – | – | 62% |
| NCCCC[C@H](N)C(=O)NCCCC[C@H](NC(=O)[C@@H](N)CCCCN)C(=O)N(CCCN)CCCCN(CCCN)C(=O)[C@H](CCCCNC(=O)[C@@H](N)CCCCN)NC(=O)[C@@H](N)CCCCN [Example 12, SPM(Lys)6 Hydrochloride] | 43% | > 10000 µg/mL | – | – |
| TETA[PheAsp(DETA)]4 Hydrochloride [Example 74] | – | – | – | 79% |
| TETA(OrnOrn)2(LeuOrn)2 Hydrochloride [Example 73] | – | – | – | 52% |
| TETA(OrnOrn)2(PheOrn)2 Hydrochloride [Example 50] | – | – | – | 79% |
| TETA(OrnPheDab)4 Hydrochloride [Example 69] | – | – | – | 67% |
| TETA(PheDab)4 Hydrochloride [Example 63] | – | – | – | 73% |
| NCCCC[C@H](NC(=O)[C@H](CCCCN)NC(=O)[C@@H](N)CCCCN)C(=O)NCCCN(CCCCN(CCCNC(=O)[C@H](CCCCN)NC(=O)[C@H](CCCCN)NC(=O)[C@@H](N)CCCCN)C(=O)[C@H](CCCCN)NC(=O)[C@H](CCCCN)NC(=O)[C@@H](N)CCCCN)C(=O)[C@H](CCCCN)NC(=O)[C@H](CCCCN)NC(=O)[C@@H](N)CCCCN [Example 20, SPM(Lys)12 Hydrochloride] | 60% | > 10000 µg/mL | – | – |
| TETA(4-NH2Bz)4(Orn)4(Orn)8 Hydrochloride [Example 62] | – | – | – | 66% |
| TETA[Orn(Dab)2]4 TFA Salt [Example 35] | – | – | – | 58% |
| SPM(Orn)8 Hydrochloride [Example 22] | 60% | – | – | – |
| TAA[3,5-NH2Bz(Orn)2]3 Hydrochloride [Example 72] | – | – | – | 79% |
| N=C(N)NCCC[C@H](N)C(=O)NCCCN(CCCCN(CCCNC(=O)[C@@H](N)CCCNC(=N)N)C(=O)[C@@H](N)CCCNC(=N)N)C(=O)[C@@H](N)CCCNC(=N)N [Example 5, SPM(Arg)4 Hydrochloride] | 52% | > 10000 µg/mL | – | – |
| TETA(LeuOrn)4 Hydrochloride [Example 75] | – | – | – | 55% |
| NCCCC[C@H](NC(=O)[C@@H](N)CCCCN)C(=O)NCCCN(CCCCN(CCCNC(=O)[C@H](CCCCN)NC(=O)[C@@H](N)CCCCN)C(=O)[C@H](CCCCN)NC(=O)[C@@H](N)CCCCN)C(=O)[C@H](CCCCN)NC(=O)[C@@H](N)CCCCN [Example 16, SPM(Lys)8 Hydrochloride] | 49% | > 10000 µg/mL | – | – |
| TETA(Phe-αOrnOrn)4 Hydrochloride [Example 49] | – | – | – | 74% |
| TETA[Dab(Dab)2]4 Hydrochloride [Example 53] | – | – | – | 60% |
| TETA[Orn(Dab)2]4 Hydrochloride [Example 41] | – | – | – | 58) % |
